Among the data in ChEMBL document CHEMBL1268921, “New pyridazinone derivatives with vasorelaxant and platelet antiaggregatory activities” (Bioorg Med Chem Lett, 2010) are IC50, Activity and inhibition values, retold here.

Test [1] in a line: Antiplatelet activity against human platelet assessed as inhibition of collagen-induced platelet aggregation. It counts as functional, cell-based.
The test system of another test is Aorta. The test can be described thus: Vasorelaxant activity against noradrenaline-induced contraction in intact rat aortic rings. It counts as functional, tissue-based.
The next test relates to Platelet. The test can be described thus: Antiplatelet activity against human platelet assessed as inhibition of thrombin-induced platelet aggregation at <100 uM. It counts as functional, cell-based.
Test [2] addresses Prostaglandin G/H synthase 1 (Homo sapiens) (UniProt P23219). Put plainly: Inhibition of COX1.

Active and inactive are the calls of the source. The rule behind the calls is not given here.

What is called IC50 is the concentration that inhibits the measured activity by half.

Chain of Prostaglandin G/H synthase 1 (Homo sapiens) (P23219 whole entry): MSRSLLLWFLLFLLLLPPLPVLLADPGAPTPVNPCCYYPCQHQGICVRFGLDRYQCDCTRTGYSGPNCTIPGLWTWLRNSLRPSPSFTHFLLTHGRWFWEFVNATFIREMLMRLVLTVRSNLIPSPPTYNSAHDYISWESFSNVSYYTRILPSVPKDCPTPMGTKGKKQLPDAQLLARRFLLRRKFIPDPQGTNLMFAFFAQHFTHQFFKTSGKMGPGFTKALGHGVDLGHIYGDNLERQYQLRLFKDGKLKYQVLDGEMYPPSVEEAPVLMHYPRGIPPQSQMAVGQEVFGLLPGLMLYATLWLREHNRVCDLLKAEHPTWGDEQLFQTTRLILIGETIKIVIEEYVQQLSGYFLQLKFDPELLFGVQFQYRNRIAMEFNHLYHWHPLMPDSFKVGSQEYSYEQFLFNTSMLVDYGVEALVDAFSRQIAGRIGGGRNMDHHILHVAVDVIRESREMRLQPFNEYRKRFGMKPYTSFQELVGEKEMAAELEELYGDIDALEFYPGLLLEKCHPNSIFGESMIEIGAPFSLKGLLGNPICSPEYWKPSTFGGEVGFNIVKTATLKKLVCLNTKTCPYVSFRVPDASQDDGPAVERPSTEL

Consider `CC(C)(C)[Si](OCCc1ccc(=O)[nH]n1)(c1ccccc1)c1ccccc1`, for which the values for the IC50 (in test [1]; in the test on Aorta) were 3.87 µM and 56.2 µM, respectively. Also, the outcome with Platelet was Active.

Consider `O=c1ccc(CCO)nn1Cc1ccccc1`, for which the IC50 (in test [1]; in the test with Aorta) was more than 100 µM in each case. For the same compound, in the test with Platelet, the outcome was Active.

`CC(C)(C)[Si](OCCc1ccc(=O)n(Cc2ccccc2)n1)(c1ccccc1)c1ccccc1`: the IC50 in test [1] is 4.8 µM; in the test on Aorta, more than 100 µM. Moreover, the outcome with Platelet was Active.

In the case of `O=c1ccc(CO)n[nH]1`, the IC50 (in test [1]; in the test with Aorta) was more than 100 µM in each case. Further, in the test with Platelet, the outcome was Active.

`Cn1nc(CCCOCc2ccccc2)ccc1=O`: the IC50 turned out to be 50.7 µM in test [1] and 76.4 µM with Aorta. Further, the result with Platelet was Active.

Consider `CC(C)(C)[Si](OCc1ccc(=O)[nH]n1)(c1ccccc1)c1ccccc1`, for which the IC50 in test [1] is 1.8 µM; in the test with Aorta, 62.6 µM. Further, in the test with Platelet, the outcome was Active.

For `O=c1ccc(CO)nn1Cc1ccccc1`, the IC50 (in test [1]; in the test on Aorta) was more than 100 µM throughout. For the same compound, in the test with Platelet, the result was Active.

Take `Cn1nc(CCOCc2ccccc2)ccc1=O`: the IC50 (in test [1]; in the test with Aorta) was more than 100 µM in each case. In the test with Platelet, the result was Active.

In the case of `O=c1ccc(CCCO)nn1Cc1ccccc1`, the 50% inhibitory concentration (IC50) in test [1] was 4.7 µM; in the test with Aorta, more than 100 µM. The result with Platelet was Active.

For `O=c1ccc(CCOCc2ccccc2)nn1Cc1ccccc1`, the IC50 in test [1] worked out at 4.11 µM; in the test on Aorta it was 32.3 µM. Besides, the result in the test on Platelet was Active.

`O=c1ccc(CCCOCc2ccccc2)nn1Cc1ccccc1`: the IC50 came out at 5.9 µM in test [1] and 32.5 µM in the test on Aorta. Further, in the test with Platelet, the outcome was Active.

For `CC(C)(C)[Si](OCCCc1ccc(=O)n(Cc2ccccc2)n1)(c1ccccc1)c1ccccc1`, the figures for the concentration for half-maximal inhibition (IC50) (in test [1]; with Aorta) were 3.9 µM and 39.9 µM, respectively. Besides, the outcome in the test on Platelet was Active.

With `Cn1nc(CO)ccc1=O`, the half-maximal inhibitory concentration (IC50) is 69.6 µM in test [1] and more than 100 µM in the test with Aorta. Besides, in the test on Platelet, the result was Active.

On to `O=c1ccc(COCc2ccccc2)nn1Cc1ccccc1`, for which the 50% inhibitory concentration (IC50) in test [1] stood at 8 µM; in the test with Aorta, 35.3 µM. Further, in the test with Platelet, the result was Active.

As to `Cn1nc(CCCO)ccc1=O`, the concentration for half-maximal inhibition (IC50) (in test [1]; with Aorta) was more than 100 µM each time. Further, the result in the test on Platelet was Active.

For `CC(C)(C)[Si](OCCCc1ccc(=O)[nH]n1)(c1ccccc1)c1ccccc1`, the IC50 is 2.13 µM in test [1] and 78.2 µM with Aorta. Further, the outcome in the test with Platelet was Active.

On to `O=c1ccc(CCCO)n[nH]1`, for which the IC50 (in test [1]; in the test on Aorta) was more than 100 µM in each case. The result in the test on Platelet was Active.

Take `Cn1nc(CCCO[Si](c2ccccc2)(c2ccccc2)C(C)(C)C)ccc1=O`: the 50% inhibitory concentration (IC50) in test [1] is 2.34 µM; in the test on Aorta it was more than 100 µM. For the same compound, the result with Platelet was Active.

For `CC(C)(C)[Si](OCc1ccc(=O)n(Cc2ccccc2)n1)(c1ccccc1)c1ccccc1`, the half-inhibitory concentration (IC50) in test [1] is 4.6 µM; in the test on Aorta it was more than 100 µM. Besides, in the test on Platelet, the outcome was Active.

With `Cn1nc(COCc2ccccc2)ccc1=O`, the IC50 (in test [1]; with Aorta) was more than 100 µM throughout. Also, the result in the test on Platelet was Active.

`O=c1ccc(CCO)n[nH]1`: the IC50 is 64.3 µM in test [1] and more than 100 µM with Aorta. The result in the test with Platelet was Active.

As for `Cc1[nH]c(=O)c(C#N)cc1-c1ccncc1` [MILRINONE], the values for the IC50 (in test [1]; with Aorta) were 38.5 µM and 0.122 µM, respectively.

`Cn1nc(CO[Si](c2ccccc2)(c2ccccc2)C(C)(C)C)ccc1=O`: the IC50 in test [1] is 4.55 µM; in the test on Aorta it was 58.4 µM. In addition, in the test on Platelet, the result was Active.

`Cn1nc(CCO[Si](c2ccccc2)(c2ccccc2)C(C)(C)C)ccc1=O`: the IC50 in test [1] was found to be 3.17 µM; in the test on Aorta it was 47 µM. For the same compound, the result in the test on Platelet was Active. In test [2], the inhibition result was “Active”.

In the case of `Cn1nc(CCO)ccc1=O`, the figures for the IC50 (in test [1]; with Aorta) were 60.4 µM and more than 100 µM, respectively. Further, the outcome in the test with Platelet was Active.
